Results as given in patent US20060128792A1, “Deguelin as a chemopreventive agent for lung cancer” (priority 2002, published 2006).
Values joined by “and” are separate entries in the source; they are usually repeats but may differ in a detail not shown here. Equal entries are not always repeated.

Assays:
Assay type in all cases: cell-based
H460 = experiment: MTT assay, growth inhibition by deguelin or deguelin derivatives; conditions: 3 days
H596 = experiment: as above; conditions: 3 days
H322 = experiment: as above; conditions: 3 days
A549 = experiment: as above; conditions: 3 days
H358 = experiment: as above; conditions: 3 days
H1299 = experiment: as above; conditions: 3 days
NSCLC cells = experiment: MTT assay, growth inhibition of NSCLC cells by deguelin and deguelin derivatives (Table 2, FIG. 7); conditions: 0.01-1 μM, 3 days

For `C=C(C)[C@H]1Cc2c(ccc3c2O[C@@H]2COc4cc(OC)c(OC)cc4[C@@H]2C3=O)O1` [rotenone], the “% control” value (H460; H460, 0.01 μM) was 0.14%, the “MTT assay reading, Average” value (H460; H460, 0.01 μM) was 0.2486 and the “MTT assay reading, individual replicate” value (H460; H460, 0.01 μM) was 0.092 and 0.412 and 0.24 and 0.191 and 0.228 and 0.242 and 0.335. For the same compound, the “% control” value (H460; H460, 0.1 μM) was 0.10%, the “MTT assay reading, Average” value (H460; H460, 0.1 μM) was 0.1766 and the “MTT assay reading, individual replicate” value (H460; H460, 0.1 μM) was 0.143 and 0.107 and 0.138 and 0.161 and 0.242 and 0.268 and 0.177. For the same compound, the “% control” value (H460; H460, 0.5 μM) was 0.09%, the “MTT assay reading, Average” value (H460; H460, 0.5 μM) was 0.1499 and the “MTT assay reading, individual replicate” value (H460; H460, 0.5 μM) was 0.185 and 0.159 and 0.143 and 0.1 and 0.104 and 0.117 and 0.241. The “% control” value (H460; H460, 1 μM) was 0.10%, the “MTT assay reading, Average” value (H460; H460, 1 μM) was 0.1763 and the “MTT assay reading, individual replicate” value (H460; H460, 1 μM) was 0.071 and 0.467 and 0.127 and 0.144 and 0.138 and 0.118 and 0.169. For the same compound, the “MTT assay reading, Average” value (H596; H596, 0.01 μM) was 0.4666, the “MTT assay reading, individual replicate” value (H596; H596, 0.01 μM) was 0.393 and 0.433 and 0.462 and 0.499 and 0.497 (2×) and 0.485 and the “MTT assay reading, Average” value (H596; H596, 0.1 μM) was 0.3784. For the same compound, the “MTT assay reading, individual replicate” value (H596; H596, 0.1 μM) was 0.271 and 0.369 and 0.513 and 0.582 and 0.413 and 0.285 and 0.216, the “MTT assay reading, Average” value (H596; H596, 0.5 μM) was 0.2329 and the “MTT assay reading, individual replicate” value (H596; H596, 0.5 μM) was 0.189 and 0.362 and 0.261 and 0.296 and 0.156 and 0.203 and 0.163. For the same compound, the “MTT assay reading, Average” value (H596; H596, 1 μM) was 0.177, the “MTT assay reading, individual replicate” value (H596; H596, 1 μM) was 0.205 (2×) and 0.123 and 0.193 and 0.172 and 0.161 and 0.18 and the “MTT assay reading, Average” value (H322; H322, 0.01 μM) was 0.4327. For the same compound, the “MTT assay reading, individual replicate” value (H322; H322, 0.01 μM) was 0.477 and 0.569 and 0.498 and 0.266 and 0.304 and 0.489 and 0.426, the “MTT assay reading, Average” value (H322; H322, 0.1 μM) was 0.3726 and the “MTT assay reading, individual replicate” value (H322; H322, 0.1 μM) was 0.414 and 0.357 and 0.41 and 0.408 and 0.319 and 0.361 and 0.339. The “MTT assay reading, Average” value (H322; H322, 0.5 μM) was 0.322, the “MTT assay reading, individual replicate” value (H322; H322, 0.5 μM) was 0.262 and 0.328 and 0.307 and 0.34 and 0.378 and 0.353 and 0.286 and the “MTT assay reading, Average” value (H322; H322, 1 μM) was 0.2547. For the same compound, the “MTT assay reading, individual replicate” value (H322; H322, 1 μM) was 0.229 and 0.223 and 0.225 and 0.288 and 0.226 and 0.338 and 0.254, the “% control” value (A549; A549, 0.01 μM) was 0.35% and the “MTT assay reading, Average” value (A549; A549, 0.01 μM) was 0.463. For the same compound, the “MTT assay reading, individual replicate” value (A549; A549, 0.01 μM) was 0.425 and 0.439 and 0.541 and 0.451 and 0.45 and 0.428 and 0.507, the “% control” value (A549; A549, 0.1 μM) was 0.27% and the “MTT assay reading, Average” value (A549; A549, 0.1 μM) was 0.3653. For the same compound, the “MTT assay reading, individual replicate” value (A549; A549, 0.1 μM) was 0.418 and 0.293 and 0.364 and 0.26 and 0.429 and 0.354 and 0.439, the “% control” value (A549; A549, 0.5 μM) was 0.27% and the “MTT assay reading, Average” value (A549; A549, 0.5 μM) was 0.3657. For the same compound, the “MTT assay reading, individual replicate” value (A549; A549, 0.5 μM) was 0.284 and 0.833 and 0.266 and 0.314 and 0.246 and 0.308 and 0.309, the “% control” value (A549; A549, 1 μM) was 0.13% and the “MTT assay reading, Average” value (A549; A549, 1 μM) was 0.1791. For the same compound, the “MTT assay reading, individual replicate” value (A549; A549, 1 μM) was 0.188 and 0.171 and 0.176 and 0.213 and 0.173 and 0.141 and 0.192, the “MTT assay reading, Average” value (H358; H358, 0.01 μM) was 0.3171 and the “MTT assay reading, individual replicate” value (H358; H358, 0.01 μM) was 0.298 and 0.253 and 0.268 and 0.348 and 0.331 and 0.329 and 0.393. For the same compound, the “MTT assay reading, Average” value (H358; H358, 0.1 μM) was 0.309, the “MTT assay reading, individual replicate” value (H358; H358, 0.1 μM) was 0.257 and 0.27 and 0.281 and 0.311 and 0.338 and 0.371 and 0.335 and the “MTT assay reading, Average” value (H358; H358, 0.5 μM) was 0.2334. The “MTT assay reading, individual replicate” value (H358; H358, 0.5 μM) was 0.263 and 0.209 and 0.189 and 0.244 and 0.198 and 0.235 and 0.296, the “MTT assay reading, Average” value (H358; H358, 1 μM) was 0.2736 and the “MTT assay reading, individual replicate” value (H358; H358, 1 μM) was 0.308 and 0.205 and 0.243 and 0.287 and 0.258 and 0.247 and 0.367. The “MTT assay reading, Average” value (H1299; H1299, 0.01 μM) was 0.2794, the “MTT assay reading, individual replicate” value (H1299; H1299, 0.01 μM) was 0.249 and 0.392 and 0.221 and 0.209 and 0.261 and 0.311 and 0.313 and the “MTT assay reading, Average” value (H1299; H1299, 0.1 μM) was 0.1907. For the same compound, the “MTT assay reading, individual replicate” value (H1299; H1299, 0.1 μM) was 0.25 and 0.3 and 0.158 and 0.09 and 0.125 and 0.235 and 0.177, the “MTT assay reading, Average” value (H1299; H1299, 0.5 μM) was 0.2391 and the “MTT assay reading, individual replicate” value (H1299; H1299, 0.5 μM) was 0.308 and 0.259 and 0.248 and 0.197 and 0.195 and 0.179 and 0.288. The “MTT assay reading, Average” value (H1299; H1299, 1 μM) was 0.2753 and the “MTT assay reading, individual replicate” value (H1299; H1299, 1 μM) was 0.226 and 0.193 and 0.23 and 0.175 and 0.76 and 0.148 and 0.195.
bromorot-2′-enoic acid was tested, and the “inhibiting cell growth in NSCLC cells, ranking among the derivatives” value (NSCLC cells) was “most effective”.
